Experimental data: ChEMBL document CHEMBL1148094, “Graminone B, a novel lignan with vasodilative activity from Imperata cylindrica” (1994)
The source made the active and inactive calls. The calls are words filed in the database; no cut-off is given here.

Experiments:
[1] = Vasorelaxant activity in rabbit aorta assessed as inhibition of KCl-induced contractile response at 100 uM; format: functional; details: Oryctolagus cuniculus
Oryctolagus cuniculus = organism: Oryctolagus cuniculus; assay: Vasorelaxant activity in rabbit aorta assessed as inhibition of norepinephrine-induced contractile response at 100 uM; format: functional, tissue-based

COc1cc(O)cc([C@@H]2OC[C@@H]3[C@H]2C(=O)O[C@H]3c2cc(O)c(OC)c(OC)c2)c1 [GRAMINONE B]
inhibition at 100 µM [1]: 50%
Activity (Oryctolagus cuniculus): inactive
